Data on 20 molecules can be found in the NIST ThermoML archive (doi:10.1016/j.fluid.2014.11.020).

The nature of the data set: activity coefficient (dimensionless); of the first substance listed, at infinite dilution; xn = mol fraction of the nth substance listed. The note with it: Liquid, Chromatography, x1 = 0.

Numbers after ± are expanded uncertainties.

Consider `CCCCCCCCCCCC` [dodecane] + CCCOC[n+]1ccn(C)c1.O=S(=O)([N-]S(=O)(=O)C(F)(F)F)C(F)(F)F, for which the activity coefficient runs as follows: (323.15 K) 132 ± 9.1; (333.15 K) 118 ± 8.1; (343.15 K) 105 ± 7.2.
The like results for `CCc1ccccc1` [ethylbenzene] + CN(C)c1cc[n+](COCCCOC[n+]2ccc(N(C)C)cc2)cc1.O=S(=O)([N-]S(=O)(=O)C(F)(F)F)C(F)(F)F.O=S(=O)([N-]S(=O)(=O)C(F)(F)F)C(F)(F)F were, in that order, 1.46 ± 0.1, 1.49 ± 0.1 and 1.5 ± 0.1.
On to `CCc1ccccc1` [ethylbenzene] + CCCOC[n+]1ccn(Cc2ccccc2)c1.F[B-](F)(F)F, for which the activity coefficient runs as follows: (323.15 K) 4.89 ± 0.33; (333.15 K) 4.71 ± 0.32; (343.15 K) 4.73 ± 0.32.
The like results for `CCCC(C)=O` [pentan-2-one] + Cn1cc[n+](COCCCOC[n+]2ccn(C)c2)c1.O=S(=O)([N-]S(=O)(=O)C(F)(F)F)C(F)(F)F.O=S(=O)([N-]S(=O)(=O)C(F)(F)F)C(F)(F)F were, in that order, 0.62 ± 0.04, 0.65 ± 0.04 and 0.63 ± 0.04.
The like results for `CCCCCCCCCC` [decane] + CCCOC[n+]1ccn(Cc2ccccc2)c1.N#C[N-]C#N were, in that order, 144 ± 9.9, 123 ± 8.4 and 105 ± 7.2.
The like results for `CCCC(C)=O` [pentan-2-one] + CCCOC[n+]1ccn(C)c1.O=S(=O)([N-]S(=O)(=O)C(F)(F)F)C(F)(F)F were, in that order, 0.72 ± 0.05, 0.72 ± 0.05 and 0.73 ± 0.05.
In the case of `c1ccccc1` [benzene] + CCCCCCCCn1cc[n+](COCCCOC[n+]2ccn(CCCCCCCC)c2C)c1C.N#C[N-]C#N.N#C[N-]C#N, the activity coefficient (323.15 K) amounted to 0.7 ± 0.05, the activity coefficient (333.15 K) came to 0.71 ± 0.05 and the activity coefficient (343.15 K) stood at 0.71 ± 0.05.
In the case of `CC1CCCCC1` [methylcyclohexane] + CCCOC[n+]1ccc(N(C)C)cc1.O=S(=O)([N-]S(=O)(=O)C(F)(F)F)C(F)(F)F, the activity coefficient reads like this: (323.15 K) 9.3 ± 0.63; (333.15 K) 8.99 ± 0.61; (343.15 K) 7.79 ± 0.53.
In the same order, the values of `Cc1ccc(C)cc1` [1,4-dimethylbenzene] + CCCOC[n+]1ccn(C)c1.O=S(=O)([N-]S(=O)(=O)C(F)(F)F)C(F)(F)F are 2.58 ± 0.18, 2.53 ± 0.17 and 2.52 ± 0.17.
The like results for `Cc1ccc(C)cc1` [1,4-dimethylbenzene] + CCCOC[n+]1ccn(C)c1.F[B-](F)(F)F were, in that order, 10.7 ± 0.73, 10.3 ± 0.7 and 10.2 ± 0.7.
In the same order, the values of `CC(C)CO` [2-methyl-1-propanol] + CCCOC[n+]1ccn(C)c1.N#C[N-]C#N are 1.29 ± 0.08, 1.25 ± 0.08 and 1.21 ± 0.08.
In the case of `Cc1ccc(C)cc1` [1,4-dimethylbenzene] + Cn1cc[n+](COCCCOC[n+]2ccn(C)c2)c1.O=S(=O)([N-]S(=O)(=O)C(F)(F)F)C(F)(F)F.O=S(=O)([N-]S(=O)(=O)C(F)(F)F)C(F)(F)F, the activity coefficient is, setting by setting: (323.15 K) 2.39 ± 0.16; (333.15 K) 2.41 ± 0.16; (343.15 K) 2.34 ± 0.16.
The like results for `CCCCCCC` [heptane] + CCCCCCCCn1cc[n+](COCCCOC[n+]2ccn(CCCCCCCC)c2C)c1C.N#C[N-]C#N.N#C[N-]C#N were, in that order, 11.6 ± 0.79, 8.65 ± 0.59 and 8.8 ± 0.6.
In the case of `CCCCCCCCCCC` [undecane] + CCCOC[n+]1ccn(C)c1.N#C[N-]C#N, the activity coefficient is 556 ± 38 (323.15 K), 504 ± 35 (333.15 K) and 432 ± 30 (343.15 K).
The like results for `CC1CCCCC1` [methylcyclohexane] + CCCOC[n+]1ccn(Cc2ccccc2)c1.O=S(=O)([N-]S(=O)(=O)C(F)(F)F)C(F)(F)F were, in that order, 6.47 ± 0.44, 6.14 ± 0.42 and 5.7 ± 0.39.
In the same order, the values of `C1CCCCC1` [cyclohexane] + CCCCCCCCn1cc[n+](COCCC)c1C.N#C[N-]C#N are 4.06 ± 0.28, 3.85 ± 0.26 and 3.82 ± 0.26.
The like results for `CCO` [ethanol] + Cn1cc[n+](COCCCOC[n+]2ccn(C)c2)c1.O=S(=O)([N-]S(=O)(=O)C(F)(F)F)C(F)(F)F.O=S(=O)([N-]S(=O)(=O)C(F)(F)F)C(F)(F)F were, in that order, 1.06 ± 0.07, 0.96 ± 0.06 and 0.89 ± 0.06.
As to `CC1CCCCC1` [methylcyclohexane] + CCCCCCCCn1cc[n+](COCCC)c1C.N#C[N-]C#N, the activity coefficient worked out at 5.11 ± 0.35 (323.15 K), 4.86 ± 0.33 (333.15 K) and 4.81 ± 0.33 (343.15 K).
For the molecule `c1ccsc1` [thiophene] + N#C[N-]C#N.N#C[N-]C#N.c1ccc(Cn2cc[n+](COCCCOC[n+]3ccn(Cc4ccccc4)c3)c2)cc1, the activity coefficient by setting is: (323.15 K) 1.7 ± 0.11; (333.15 K) 1.64 ± 0.11; (343.15 K) 1.67 ± 0.11.
In the same order, the values of `C=CCCCC` [hex-1-ene] + CCCCCCCCn1cc[n+](COCCC)c1C.O=S(=O)([N-]S(=O)(=O)C(F)(F)F)C(F)(F)F are 2.65 ± 0.18, 2.38 ± 0.16 and 2.47 ± 0.17.
